We go through 35 compounds from patent US12129237B2, “Substituted diaminocarboxamide and diaminocarbonitrile pyrimidines, compositions thereof, and methods of treatment therewith” (SIGNAL PHARMACEUTICALS, LLC, priority 2011, dated 2024).

Like-named read-outs stand apart in the source and are kept apart here. A value given as a limit tells only on which side of the number the result lay.

For this assay, the target named is T1, JNK1 (Homo sapiens, UniProt P45983).
T1 construct: purchased Carna Biosciences
The assay is described as follows: JNK1 biochemical assays (one or more of: time resolved fluorescence, Z'-LYTE Cascade, radioactive).

Setting [1] is: one or more of the JNK1 biochemical assays, read-out: Act. Level (JNK1 IC50 activity level).
[2] abbreviates: Table 2, JNK1 IC50 activity level, read-out: Act. Level.
The mark [3] stands for this setting: tested in one or more of the JNK1 biochemical assays, read-out: Act. Level (JNK1 biochemical assay IC50 activity level).
The mark [4] stands for this setting: Table 3, JNK1 IC50 activity level, read-out: Act. Level.

T1 sequence (P45983 whole entry): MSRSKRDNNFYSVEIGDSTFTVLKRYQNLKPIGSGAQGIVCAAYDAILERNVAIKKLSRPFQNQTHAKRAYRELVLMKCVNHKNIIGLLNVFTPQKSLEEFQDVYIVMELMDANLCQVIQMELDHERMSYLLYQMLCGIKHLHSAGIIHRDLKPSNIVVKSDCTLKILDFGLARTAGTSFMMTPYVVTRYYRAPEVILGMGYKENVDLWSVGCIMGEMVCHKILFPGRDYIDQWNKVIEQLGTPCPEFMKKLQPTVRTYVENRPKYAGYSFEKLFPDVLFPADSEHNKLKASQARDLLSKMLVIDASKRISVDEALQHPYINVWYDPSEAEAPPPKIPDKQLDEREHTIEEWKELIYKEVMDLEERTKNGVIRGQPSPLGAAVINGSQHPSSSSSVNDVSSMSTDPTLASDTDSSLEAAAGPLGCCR

For the compound `CC1(Nc2nc(N[C@H]3CC[C@H](OC(F)F)CC3)ncc2C(N)=O)CCC1` [Example 416, 2-((1r,4r)-4-(difluoromethoxy)cyclohexylamino)-4-(1-methylcyclobutylamino)pyrimidine-5-carboxamide], the IC50 under setting [1] is less than 200 nM.
Take `NC(=O)c1cnc(NC2CC2)nc1Nc1ccccc1` [Example B-36, 2-(cyclopropylamino)-4-(phenylamino)pyrimidine-5-carboxamide]: the IC50 under setting [2] is less than 200 nM.
Regarding `CO[C@H]1CC[C@H](Nc2ncc(C(N)=O)c(N[C@H]3CC[C@@H](CO)CC3)n2)CC1` [Example A-119, 4-((1s,4s)-4-(hydroxymethyl)cyclohexylamino)-2-((1r,4r)-4-methoxycyclohexylamino)pyrimidine-5-carboxamide], the IC50 under setting [3] is less than 200 nM.
Take `CC1CCC1Nc1nc(N[C@H]2CC[C@H](OCC(F)(F)F)CC2)ncc1C(N)=O` (some centres unmarked) [Example 258, 4-(2-methylcyclobutylamino)-2-((1r,4r)-4-(2,2,2-trifluoroethoxy)cyclohexylamino)pyrimidine-5-carboxamide]: under setting [1], the IC50 is less than 200 nM.
On the same count and under the same terms, with `CC(C)(C)Nc1nc(N[C@H]2CCCC[C@H](O)C2)ncc1C(N)=O` [Example 387, 4-(tert-butylamino)-2-((1S,3S)-3-hydroxycycloheptylamino)pyrimidine-5-carboxamide] the figure was less than 200 nM; with `C[C@H](Nc1nc(N[C@H]2CC[C@H](O)CC2)ncc1C(N)=O)C1CCC1` [Example 297, 4-((S)-1-cyclobutylethylamino)-2-((1r,4S)-4-hydroxycyclohexylamino)pyrimidine-5-carboxamide], less than 200 nM.
On to `CC(C)CC(=O)N1CCC(Nc2ncc(C(N)=O)c(NC3CCOCC3)n2)CC1` [Example A-110, 2-(1-(3-methylbutanoyl)piperidin-4-ylamino)-4-(tetrahydro-2H-pyran-4-ylamino)pyrimidine-5-carboxamide], for which the IC50 under setting [3] is 200 to 800 nM.
Still for that read-out and setting: with `CC(C)CC(=O)N1CCC(Nc2ncc(C(N)=O)c(NC3CCC3)n2)CC1` [Example A-107, 4-(cyclobutylamino)-2-(1-(3-methylbutanoyl)piperidin-4-ylamino)pyrimidine-5-carboxamide] the figure was less than 200 nM.
As for `CN(C)C(=O)[C@H]1CC[C@H](Nc2ncc(C(N)=O)c(NC34CC(C3)C4)n2)CC1` [Example 418, 4-(bicyclo[1.1.1]pentan-1-ylamino)-2-((1r,4r)-4-(dimethylcarbamoyl)cyclohexylamino)pyrimidine-5-carboxamide], the IC50 under setting [1] is less than 200 nM.
On to `CC(C)Nc1ncc(C(N)=O)c(N[C@H]2CC[C@@H](C(=O)N3CCCC3)CC2)n1` [Example A-143, 2-(isopropylamino)-4-((1s,4s)-4-(pyrrolidine-1-carbonyl)cyclohexylamino)pyrimidine-5-carboxamide], for which, under setting [3], the IC50 was in the range of 800 to 1000 nM.
In the case of `CCC(=O)N[C@H]1CC[C@@H](Nc2nc(NC3CCCC3)ncc2C(N)=O)CC1` [Example A-129, 2-(cyclopentylamino)-4-((1s,4s)-4-propionamidocyclohexylamino)pyrimidine-5-carboxamide], the IC50 under setting [3] was in the range of 200 to 800 nM.
Still for that read-out and setting: with `NC(=O)c1cnc(N[C@H]2CC[C@H](OCC(F)(F)F)CC2)nc1N[C@@H]1CCC[C@H]1O` [Example A-156, 4-((1R,2R)-2-hydroxycyclopentylamino)-2-((1r,4R)-4-(2,2,2-trifluoroethoxy)cyclohexylamino)pyrimidine-5-carboxamid] the figure was less than 200 nM.
Still for that read-out and setting: with `C[C@H](Nc1ncc(C(N)=O)c(N[C@H]2CC[C@@H](N)CC2)n1)C1CCCCC1` [Example A-126, 4-((1s,4R)-4-aminocyclohexylamino)-2-((S)-1-cyclohexylethylamino)pyrimidine-5-carboxamide] the figure was less than 200 nM.
With `CCNC(=O)[C@H]1CC[C@@H](Nc2nc(NC3CC3)ncc2C(N)=O)CC1` [Example A-137, 2-(cyclopropylamino)-4-((1s,4s)-4-(ethylcarbamoyl)cyclohexylamino)pyrimidine-5-carboxamide], the IC50 under setting [3] fell in the range of 1000 to 10000 nM.
As to `NC(=O)c1cnc(N[C@H]2CC[C@H](OC(F)F)CC2)nc1NC12CC(C1)C2` [Example 420, 4-(bicyclo[1.1.1]pentan-1-ylamino)-2-((1r,4r)-4-(difluoromethoxy)cyclohexylamino)pyrimidine-5-carboxamide], under setting [1], the IC50 was less than 200 nM.
For `CC(C)(C)Nc1nc(NC23CCC(O)(CC2)CC3)ncc1C(N)=O` [Example 237, 4-(tert-butylamino)-2-(4-hydroxybicyclo[2.2.2]octan-1-ylamino)pyrimidine-5-carboxamide], under setting [1], the IC50 was less than 200 nM.
For the compound `CCO[C@H]1CC[C@H](Nc2ncc(C(N)=O)c(N[C@H]3CCC[C@@H]3OC)n2)CC1` [Example A-103, 2-((1r,4S)-4-ethoxycyclohexylamino)-4-((1S,2S)-2-methoxycyclopentylamino)pyrimidine-5-carboxamide], under setting [3], the IC50 is less than 200 nM.
As for `CC1CCC1Nc1nc(N[C@H]2CC[C@H](O)CC2)ncc1C(N)=O` (some centres unmarked) [Example 247, 2-((1r,4r)-4-hydroxycyclohexylamino)-4-(2-methylcyclobutylamino)pyrimidine-5-carboxamide], the IC50 under setting [1] was less than 200 nM.
For the compound `CO[C@H]1CCC[C@H](Nc2ncc(C(N)=O)c(N[C@@H]3CCC[C@H](O)C3)n2)CC1` [Example A-200, 4-((1R,3S)-3-hydroxycyclohexylamino)-2-((1S,4S)-4-methoxycycloheptylamino)pyrimidine-5-carboxamide], under setting [3], the IC50 is less than 200 nM.
Consider `COc1cccc(CNc2ncc(C(N)=O)c(Nc3ccccc3)n2)c1OC` [Example B-55, 2-(2,3-dimethoxybenzylamino)-4-(phenylamino)pyrimidine-5-carboxamide], for which the IC50 under setting [2] is 200 to 800 nM.
Same read-out and setting: with `NC(=O)c1cnc(NC2CCOCC2)nc1Nc1ccc2ncccc2c1` [Example B-2, 4-(quinolin-6-ylamino)-2-(tetrahydro-2H-pyran-4-ylamino)pyrimidine-5-carboxamide] the figure was less than 200 nM.
With `CC[C@H](Nc1nc(N[C@H]2CC[C@H](OC)CC2)ncc1C(N)=O)C1CC1` [Example 372, 4-((S)-1-cyclopropylpropylamino)-2-((1r,4S)-4-methoxycyclohexylamino)pyrimidine-5-carboxamide], the IC50 under setting [1] is less than 200 nM.
On to `CN(C)C(=O)C(C)(C)C1CCC(Nc2ncc(C#N)c(N[C@@H]3CCC[C@H](O)C3)n2)CC1` (stereo partly drawn) [Example C-35, 2-(4-(5-cyano-4-((1R,3S)-3-hydroxycyclohexylamino)pyrimidin-2-ylamino)cyclohexyl)-N,N,2-trimethylpropanamide], for which the IC50 under setting [4] fell in the range of 200 to 800 nM.
As to `CO[C@H]1CC[C@H](Nc2ncc(C(N)=O)c(N[C@H]3CC[C@H](NC(C)=O)CC3)n2)CC1` [Example A-38, 4-((1r,4r)-4-acetamidocyclohexylamino)-2-((1r,4r)-4-methoxycyclohexylamino)pyrimidine-5-carboxamide], the IC50 under setting [3] was less than 200 nM.
As for `CCO[C@@H]1CC[C@@H](Nc2ncc(C(N)=O)c(N[C@H]3CCC[C@@H]3O)n2)C1` [Example A-76, 2-((1R,3R)-3-ethoxycyclopentylamino)-4-((1S,2S)-2-hydroxycyclopentylamino)pyrimidine-5-carboxamide], the IC50 under setting [3] lay within 200 to 800 nM.
Take `CC(C)(C)Nc1nc(NC23CCC(F)(CC2)CC3)ncc1C(N)=O` [Example 289, 4-(tert-butylamino)-2-(4-fluorobicyclo[2.2.2]octan-1-ylamino)pyrimidine-5-carboxamide]: the IC50 under setting [1] was less than 200 nM.
For the compound `CCO[C@H]1CC[C@H](Nc2ncc(C(N)=O)c(N[C@@H]3CCC[C@](C)(O)C3)n2)CC1` [Example A-157, 2-((1r,4R)-4-ethoxycyclohexylamino)-4-((1R,3S)-3-hydroxy-3-methylcyclohexylamino)pyrimidine-5-carboxamide], under setting [3], the IC50 was less than 200 nM.
On the same count and under the same terms, with `CO[C@@H]1CCC[C@H](Nc2ncc(C(N)=O)c(N[C@@H]3CCC[C@H](O)C3)n2)CC1` [Example A-162, 4-((1R,3S)-3-hydroxycyclohexylamino)-2-((1S,4R)-4-methoxycycloheptylamino)pyrimidine-5-carboxamide] the figure was less than 200 nM.
In the case of `CCC(C)(C)Nc1nc(N[C@H]2CC[C@H](O)CC2)ncc1C(N)=O` [Example 225, 2-((1r,4r)-4-hydroxycyclohexylamino)-4-(tert-pentylamino)pyrimidine-5-carboxamide], the IC50 under setting [1] was less than 200 nM.
Regarding `N#Cc1cnc(NC2CCC(F)(F)CC2)nc1N[C@@H]1CCC[C@H](O)C1` [Example C-3, 2-(4,4-difluorocyclohexylamino)-4-((1R,3S)-3-hydroxycyclohexylamino) pyrimidine-5-carbonitrile], under setting [4], the IC50 fell in the range of 200 to 800 nM.
Turning to `C[C@]1(O)CCC[C@@H](Nc2nc(N[C@H]3CC[C@H](OC(F)F)CC3)ncc2C(N)=O)C1` [Example A-170, 2-((1r,4R)-4-(difluoromethoxy)cyclohexylamino)-4-((1R,3S)-3-hydroxy-3-methylcyclohexylamino)pyrimidine-5-carboxamide], the IC50 under setting [3] was less than 200 nM.
With `CCO[C@H]1CC[C@H](Nc2ncc(C(N)=O)c(NC3(C)CCCCC3)n2)CC1` [Example 359, 2-((1r,4r)-4-ethoxycyclohexylamino)-4-(1-methylcyclohexylamino)pyrimidine-5-carboxamide], the IC50 under setting [1] was less than 200 nM.
Regarding `CO[C@H]1CC[C@H](Nc2ncc(C#N)c(N[C@H]3CC[C@@H](O)CC3)n2)CC1` [Example C-12, 4-((1s,4s)-4-hydroxycyclohexylamino)-2-((1r,4r)-4-methoxycyclohexylamino) pyrimidine-5-carbonitrile], under setting [4], the IC50 lay in the range of 200 to 800 nM.
For `CCO[C@H]1CC[C@@H](Nc2nc(NC(C)(C)CO)ncc2C(N)=O)CC1` [Example A-106, 4-((1s,4s)-4-ethoxycyclohexylamino)-2-(1-hydroxy-2-methylpropan-2-ylamino)pyrimidine-5-carboxamide], the IC50 under setting [3] was 200 to 800 nM.
Take `CCO[C@H]1CC[C@H](Nc2ncc(C(N)=O)c(NC3C4CC3C4)n2)CC1` (some centres unmarked) [Example 476, 4-(bicyclo[1.1.1]pentan-2-ylamino)-2-((1r,4r)-4-ethoxycyclohexylamino)pyrimidine-5-carboxamide]: the IC50 under setting [1] is less than 200 nM.
